“And” between values parts separate entries of the source, which are not always exact repeats. Identical values can stand only once. Like-named read-outs stand apart in the source and are kept apart here.
What was measured:
[1] = test system: AGS cells; assay: Cell viability, crystal violet staining; details: for Cell Viability without NAC: AGS cells, Fig. S6A; for IC50: read-out: IC50 concentration (± SD) at 48 h, 48 h
Description: (§1) Cell viability was assessed using a crystal violet-based staining method. […] The cells (2 × 10^5) were seeded in 24-multiwell dishes in 0.5 mL of complete medium and incubated overnight. […] After 48 h, cells were fixed with 1% glutaraldehyde (20–30 min), washed with distilled water, and stained with 0.1% crystal violet. […] IC50 were calculated by using GraphPad Prism (version 8.0). Nonlinear regression was used to fit the data to the log (inhibitor) versus response (variable slope).

[2] = test system: MKN45 cells; assay: Cell viability, crystal violet staining; details: for Cell Viability without NAC: MKN45 cells, Fig. S6A; for IC50: read-out: IC50 concentration (± SD) at 48 h, 48 h
Description: as §1

[3] = test system: PANC1 cells; assay: Cell viability, crystal violet staining; details: for Cell Viability without NAC: PANC1 cells, Fig. S6A; for IC50: read-out: IC50 concentration (± SD) at 48 h, 48 h
Description: as §1

[4] = test system: AGS cells; assay: Flow cytometry mitochondrial mass and membrane potential (MitoTracker Green / CMXRos); type: cell-based, human; details: fold change vs C, replicates
Description: (§2) We used flow cytometry to study the mitochondrial mass, mitochondrial membrane potential (ΔΨm) and cellular senescence of untreated and treated cells. Cells (5 × 10^4) were seeded in 24-multiwell dishes and cultured overnight. […] Cells were tripsinized, stained with Mitoprobes and resuspended in Flow buffer [1X PBS; 3% Fetal Bovine Serum (v/v); 3 mM EDTA (v/v)] before analysis with a 4-laser Attune NxT Acoustic Cytometer (Thermo Fisher Scientific). For Mitoprobe assays, […] DAPI (Sigma) was used to exclude dead cells. Data were analyzed with FlowJo 9.3 software (Tree Star Inc., Ashland, OR). For mitochondrial mass and ΔΨm measurement, Mitotracker Green (MTGreen, M7514, Invitrogen) and Mitotracker Red CMXRos (CMXROS, M7512, Invitrogen) were used, respectively. Probes were incubated with cells for 30 min at 37 °C at a concentration of 100 nM (MTGreen) and 20 nM (CMXROS), and fluorescence was detected using the filters (Ex488nm/Em530/30) BL1 and (Ex561nm/Em585/16) YL1, respectively. To determine mitochondria functionality, the ratio between ΔΨm (MitoTracker Red CMXRos) versus Mit. Mass (MitoTracker Green) was calculated. The gating strategy used in all the Flow Cytometry experiments is reflected in Fig.S10.

[5] = test system: MKN45 cells; assay: as above; type: cell-based, human
Description: as §2

[6] = test system: PANC1 cells; assay: as above; type: cell-based, human
Description: as §2

[7] = test system: AGS cells; assay: RT-qPCR gene expression (CDKN1A, IL6, MMP1, MAP2K3, SOD1, SOD2, CAT, MKI67, TNFRSF10D); type: cell-based, human
Description: (§3) Total cellular RNA was extracted using Tri-Reagent (Life Technologies), following the manufacturer’s instructions. One μg of total RNA was primed with random primers and cDNA synthesized with an M-MLV reverse transcriptase following the manufacturer’s instructions (Promega). Target genes were amplified using a SYBR Green polymerase chain reaction assay, working with the specific primer sets listed in Table 4.
(§4) Thermal cycling of the qPCR reaction was initiated with a denaturation step at 95 °C for 10 min. The process consisted of 40 cycles (denaturation at 95 °C for 15 sec, annealing at 60 °C for 30 sec, and elongation at 75 °C for 30 sec). PCR amplifications were carried out in a StepOne Real‐time PCR System (Applied Biosystems, 4376357). Relative mRNA levels were calculated by the delta-Ct method (2-ΔΔCt), where each 1-Ct difference equals a two-fold change in transcript abundance, using GAPDH as an endogenous gene reference. ΔΔCT represents the difference between the mean ΔCT value of the cells tested and the mean ΔCT value of the calibrator, both calculated for the same PCR run.

[8] = test system: MKN45 cells; assay: as above; type: cell-based, human
Description: as §3, §4

[9] = test system: PANC1 cells; assay: as above; type: cell-based, human
Description: as §3, §4

[10] = test system: AGS cells; assay: Ratio GSH/GSSG, colorimetric kit; type: cell-based, human
Description: (§5) GSH and GSSG levels were determined in AGS and PANC1 cells after 3 and 24 h of treatment with the compounds (using H2O2 as a positive control) with the Glutathione Colorimetric Detection Kit (ThermoFisher) following the manufacturer’s instructions. Thirty minutes after adding the Colorimetric Detection Reagent and the Reaction Mixture, the absorbance was read at 405 nm. A standard curve was generated with each assay to interpolate the sample results. To measure GSSG, standards and samples must be diluted with the Sample Diluent containing 2-vinylpyridine.

[11] = test system: PANC1 cells; assay: Ratio GSH/GSSG, colorimetric kit; type: cell-based, human
Description: as §5

[12] = MKN45, fold change vs C, replicates
[13] = PANC1, fold change vs C, replicates
[14] = MKN45, Fig. 3C, replicate values
[15] = PANC1, Fig. 3C, replicate values

CC(C)[NH][Pt@SP1]([I])([I])[NH]C(C)C [I6, cis-[PtI2(isopropylamine)2]]
IC25 concentration ([1]; AGS): 15 µM
Cell Viability without NAC ([1]; dose 10 µM): 105.035
Cell Viability without NAC ([1]; dose 50 µM): 68.1853
Cell Viability without NAC ([1]; dose 75 µM): 30.4823
IC50 ([1]; AGS, NAC (+) 0.5 mM): > 100 µM
IC50 ([1]; AGS, NAC (-)): 50 µM and 51.5 µM
Cell Viability without NAC ([2]; dose 7.5 µM): 99.1588 and 99.2583 and 108.83
Cell Viability without NAC ([2]; dose 18.7 µM): 103.308 and 97.338 and 102.412
Cell Viability without NAC ([2]; dose 37.4 µM): 85.458 and 67.9963 and 88.4728
Cell Viability without NAC ([2]; dose 56.1 µM): 58.2655 and 42.2365 and 52.8031
Cell Viability without NAC ([2]; dose 74.8 µM): 41.9977 and 31.3714 and 39.5202
IC50 ([2]; MKN45, NAC (+) 0.5 mM): > 100 µM
IC50 ([2]; MKN45, NAC (-)): 56.8 ± 1.53 µM
Cell Viability without NAC ([3]; dose 10 µM): 77.9259 and 88.6605 and 70.8131
Cell Viability without NAC ([3]; dose 25 µM): 47.4239 and 33.5177 and 35.073
Cell Viability without NAC ([3]; dose 50 µM): 47.9877 and 31.0793 and 43.6951
IC50 ([3]; PANC1, NAC (+) 0.5 mM): > 100 µM
IC50 ([3]; PANC1, NAC (-)): 20 µM and 18.8 µM
Fold change %CMXROS, ΔΨm [4]: 0.58 and 0.29 and 0.42
Fold change %MTGreen, MM [4]: 0.83 and 0.75 and 1.298
Fold change ΔΨm/MM ([5]; MKN45, IC50 doses 24 h, CMX-ROS/MitoGreen ratio vs untreated 1.0): 0.26 and 0.21 and 0.27
Fold change %CMXROS, ΔΨm [5, 12]: 0.24 and 0.19 and 0.3
Fold change %MTGreen, MM [5, 12]: 0.93 and 0.91 and 1.1
Fold change ΔΨm/MM ([6]; PANC1, IC50 doses 24 h, CMX-ROS/MitoGreen ratio vs untreated 1.0): 0.61 and 0.39 and 0.44
Fold change %CMXROS, ΔΨm [6, 13]: 0.75 and 0.98 and 0.61
Fold change %MTGreen, MM [6, 13]: 1.22 and 2.53 and 2.1
CDKN1A, Fold change vs GAPDH ([7]; Fig. 3C, replicate values): 7.239 fold change and 5.782 fold change and 9.064 fold change
IL-6, Fold change vs GAPDH ([7]; Fig. 3C, replicate values): 1.072 fold change and 0.8542 fold change and 0.2227 fold change
MMP-1, Fold change vs GAPDH ([7]; Fig. 3C, replicate values): 528.599 fold change and 466.082 fold change and 599.501 fold change
Fold change MAP2K3 vs GAPDH ([7]; Fig. 4B, replicate values): 14.3277 fold change and 13.4406 fold change and 15.2735 fold change
MKI67 Fold change vs GAPDH ([7]; Fig. S4C): 0.8471 fold change and 0.6697 fold change and 1.072 fold change
TNFRSF10D Fold change vs GAPDH ([7]; Fig. S4C): 16.1948 fold change and 12.3693 fold change and 21.2034 fold change
CAT (Fold change vs GAPDH) ([7]; mRNA vs Control = 1): 0.4383 Fold change and 0.3857 Fold change and 0.4982 Fold change
SOD1 (Fold change vs GAPDH) ([7]; mRNA vs Control = 1): 1.81 Fold change and 1.501 Fold change and 2.182 Fold change
SOD2 (Fold change vs GAPDH) ([7]; mRNA vs Control = 1): 0.6611 Fold change and 0.5938 Fold change and 0.736 Fold change
MKI67 Fold change vs GAPDH ([8]; MKN45, Fig. S4C): 0.2699 fold change and 0.2509 fold change and 0.2902 fold change
TNFRSF10D Fold change vs GAPDH ([8]; MKN45, Fig. S4C): 0.3106 fold change and 0.2548 fold change and 0.3786 fold change
CAT (Fold change vs GAPDH) ([8]; MKN45, mRNA vs Control = 1): 1.125 Fold change and 0.8671 Fold change and 1.459 Fold change
SOD1 (Fold change vs GAPDH) ([8]; MKN45, mRNA vs Control = 1): 1.504 Fold change and 1.381 Fold change and 1.638 Fold change
SOD2 (Fold change vs GAPDH) ([8]; MKN45, mRNA vs Control = 1): 2.631 Fold change and 2.276 Fold change and 3.26 Fold change
CDKN1A, Fold change vs GAPDH [8, 14]: 1.257 fold change and 1.116 fold change and 1.417 fold change
IL-6, Fold change vs GAPDH [8, 14]: 1.298 fold change and 0.9165 fold change and 1.735 fold change
MMP-1, Fold change vs GAPDH [8, 14]: 2.795 fold change and 2.229 fold change and 3.504 fold change
Fold change MAP2K3 vs GAPDH ([8]; MKN45, Fig. 4B, replicate values): 2.445 fold change and 2.003 fold change and 2.985 fold change
MKI67 Fold change vs GAPDH ([9]; PANC1, Fig. S4C): 1.187 fold change and 1.0074 fold change and 1.3984 fold change
TNFRSF10D Fold change vs GAPDH ([9]; PANC1, Fig. S4C): 1.308 fold change and 1.177 fold change and 1.453 fold change
CAT (Fold change vs GAPDH) ([9]; PANC1, mRNA vs Control = 1): 1.283 Fold change and 1.157 Fold change and 1.422 Fold change
SOD1 (Fold change vs GAPDH) ([9]; PANC1, mRNA vs Control = 1): 1.212 Fold change and 1.267 Fold change and 1.413 Fold change
SOD2 (Fold change vs GAPDH) ([9]; PANC1, mRNA vs Control = 1): 0.7792 Fold change and 0.7372 Fold change and 0.8236 Fold change
CDKN1A, Fold change vs GAPDH [9, 15]: 0.7609 fold change and 0.6464 fold change and 0.8957 fold change
IL-6, Fold change vs GAPDH [9, 15]: 2.029 fold change and 0.6879 fold change and 5.985 fold change
MMP-1, Fold change vs GAPDH [9, 15]: 1.768 fold change and 1.572 fold change and 2.113 fold change
Fold change MAP2K3 vs GAPDH ([9]; PANC1, Fig. 4B, replicate values): 1.382 fold change and 1.186 fold change and 1.609 fold change
GSH/GSSG ([10]; AGS, 3, relative to Control = 1): 0.7708 and 0.7765 and 0.8015
GSH/GSSG ([10]; AGS, 24, relative to Control = 1): 0.964 and 0.9646 and 1.003
GSH/GSSG ([11]; PANC1, 3, relative to Control = 1): 0.8833 and 0.8858 and 1.064
GSH/GSSG ([11]; PANC1, 24, relative to Control = 1): 0.52 and 0.6511 and 0.6572

Reference: paper PMC10959927, “Platinum iodido drugs show potential anti-tumor activity, affecting cancer cell metabolism and inducing ROS and senescence in gastrointestinal cancer cells” (Communications Biology, 2024)
